Publication PMC7076013 (Scientific Reports, 2020)

system: B16F10, mouse metastatic melanoma; assay: CV (crystal violet) cell viability, B16F10; assay type: cell-based; settings: 48 h
Protocol: (§1) Both melanoma and colon cancer are tumor types tightly connected with inflammation, while the expression of COX-2 in the selected cell lines was highly variable. Since a lot of discrepancies were found in the literature concerning the expression of this enzyme[5],[48]–[53], both COX-1 and COX-2 expression was analyzed by Western blot. […] The cells were treated with a wide range of doses of 4a–c, 5, and 6 for 48 h and cell viability was determined by MTT (3-(4,5-dimethylthiazol-2-yl)-2,5-diphenyltetrazolium bromide) and CV (crystal violet) assays. The obtained IC50 values were similar for both assays (Table 1).
(§2) Reagents were obtained from Sigma (St. Louis, MO) unless indicated otherwise. Annexin V - FITC (AnnV) was acquired from Biotium (Hayward, CA) and Apostat from R&D (R&D S ystems, Minneapolis, MN USA). […] After being detached b y tr ypsinization, cells were seeded in defined number as follows: 2.5 × 10^3 cells/well in 96-well plates for viability assessment and 2 × 10^4 cells/well in 24-well plates for flow cytometry. Peritoneal resident […]
(§3) for Biolo gical Research “Siniša Stanković” b y peritoneal lav age with an ice- cold phosphate buffer solution (PBS). The handling of animals and protocol for obtaining cells is in agreement with the rules of the European Union and approved by the Institutional Animal Care and Use Committee at IBISS (02- 09/1 6). Cells were counted and seeded in 96-well plates and incubat ed overnight. Before treatment, non- adherent cells were removed. Compounds 4a- c, 5 and 6 were dissolved in DMSO and stored at −20 °C for a m onth. Working solutions were freshl y prepared in 10% FCS-RPMI-1640. Controls were treated with culture medium containing the equivalent […]
(§4) 3.2. Cell viability tests.
(§5) The number of viable cel ls in culture was estimated by the MTT (3-(4,5- dimethylthiazol- 2-yl ) - 2,5- diphenyltetrazolium bromide) and CV (crystal violet) tests. Cells were incubated in the presence of compounds 4a- c, 5 and 6 for 48 h, then the viability was measured as described.4 […]
(§6) The results were ex pressed as a p er centage of a v alue obtained for the untr eated control cells that was arbitrarily set to be 100%. A non- linear regression analysis of obtained results was done b y using Gr aphPad Prism software to calculat e IC50 values. […]

Point of comparison: “4-phenyl-3-(1,2-dicarba-closo-dodecaboranyl)furan-2(5 H)-one [Compound 4a]”, IC50 25.4 ± 2.41 µM. Against it:
- 4-[4-(methylsulfonyl)phenyl]-3-(1,2-dicarba-closo-dodecaboranyl)furan-2(5H)-one [Compound 4b] — within error, 26.6 ± 2.62 µM
- R,S-7-(2-oxo-4-(4-sulfamoylphenyl)-2,5-dihydrofuran-3-yl)-7,8-dicarba-nido-dodeca-hydroundecaborate(–1) sodium [Compound 6] — higher, > 50 µM

same assay, conditions: IC50 macrophages / IC50 cancer

Point of comparison: “4-phenyl-3-(1,2-dicarba-closo-dodecaboranyl)furan-2(5 H)-one [Compound 4a]”, “Selectivity index B16F10” value 1.9. Against it:
- 4-[4-(methylsulfonyl)phenyl]-3-(1,2-dicarba-closo-dodecaboranyl)furan-2(5H)-one [Compound 4b] — higher, 2.5

system: HCT116, human colon carcinoma; assay: MTT cell viability, HCT116; assay type: cell-based; settings: 48 h
Protocol: as §1
as §2, with “cytometry.” for “cytometry. Peritoneal resident”
(§7) Committee at IBISS (02- 09/1 6). Cells were counted and seeded in 96-well plates and incubat ed overnight. Before treatment, non- adherent cells were removed. Compounds 4a- c, 5 and 6 were dissolved in DMSO and stored at −20 °C for a m onth. Working solutions were freshl y prepared in 10% FCS-RPMI-1640. Controls were treated with culture medium containing the equivalent […]
as §4, §5, §6

Point of comparison: “4-phenyl-3-(1,2-dicarba-closo-dodecaboranyl)furan-2(5 H)-one [Compound 4a]”, IC50 13.5 µM. Against it:
- 4-[4-(methylsulfonyl)phenyl]-3-(1,2-dicarba-closo-dodecaboranyl)furan-2(5H)-one [Compound 4b] — 3.1-fold higher, 42.5 ± 1.42 µM
- R,S-7-(2-oxo-4-(4-sulfamoylphenyl)-2,5-dihydrofuran-3-yl)-7,8-dicarba-nido-dodeca-hydroundecaborate(–1) sodium [Compound 6] — higher, > 50 µM

system: B16, mouse solid melanoma; assay: MTT cell viability, B16; assay type: cell-based; settings: 48 h
Protocol: as §1
as §2, with “cytometry.” for “cytometry. Peritoneal resident”
as §7, §4, §5, §6

Point of comparison: “4-[4-(methylsulfonyl)phenyl]-3-(1,2-dicarba-closo-dodecaboranyl)furan-2(5H)-one [Compound 4b]”, IC50 18 ± 1.71 µM. Against it:
- 4-phenyl-3-(1,2-dicarba-closo-dodecaboranyl)furan-2(5 H)-one [Compound 4a] — 1.7-fold higher, 30.8 ± 2.81 µM
- R,S-7-(2-oxo-4-(4-sulfamoylphenyl)-2,5-dihydrofuran-3-yl)-7,8-dicarba-nido-dodeca-hydroundecaborate(–1) sodium [Compound 6] — higher, > 50 µM

system: CT26CL25, mouse colon carcinoma; assay: CV (crystal violet) cell viability, CT26CL25; assay type: cell-based; settings: 48 h
Protocol: as §1, §2, §3, §4, §5, §6

Point of comparison: “4-phenyl-3-(1,2-dicarba-closo-dodecaboranyl)furan-2(5 H)-one [Compound 4a]”, IC50 37.2 ± 2.21 µM. Against it:
- 4-[4-(methylsulfonyl)phenyl]-3-(1,2-dicarba-closo-dodecaboranyl)furan-2(5H)-one [Compound 4b] — within error, 36.1 ± 1.25 µM
- R,S-7-(2-oxo-4-(4-sulfamoylphenyl)-2,5-dihydrofuran-3-yl)-7,8-dicarba-nido-dodeca-hydroundecaborate(–1) sodium [Compound 6] — higher, > 50 µM

same assay, conditions: IC50 macrophages / IC50 cancer

Point of comparison: “4-phenyl-3-(1,2-dicarba-closo-dodecaboranyl)furan-2(5 H)-one [Compound 4a]”, “Selectivity index CT26CL25” value 1.3. Against it:
- 4-[4-(methylsulfonyl)phenyl]-3-(1,2-dicarba-closo-dodecaboranyl)furan-2(5H)-one [Compound 4b] — higher, 1.8

system: peritoneal resident macrophages; assay: CV cytotoxicity for isolated macrophages; assay type: cell-based, C57BL/6 mice; settings: crystal violet (CV) test
Protocol: as §2, §3, §4, §5, §6
14 Ligand molecules and one […]
protocol published earlier.16
Cell line Selectivity index

Point of comparison: “4-phenyl-3-(1,2-dicarba-closo-dodecaboranyl)furan-2(5 H)-one [Compound 4a]”, IC50 48.8 ± 1.2 µM. Against it:
- 4-[4-(methylsulfonyl)phenyl]-3-(1,2-dicarba-closo-dodecaboranyl)furan-2(5H)-one [Compound 4b] — within 1.5-fold, 65.7 ± 5.75 µM

system: B16F10, mouse metastatic melanoma; assay: MTT cell viability, B16F10; assay type: cell-based; settings: 48 h
Protocol: as §1
as §2, with “cytometry.” for “cytometry. Peritoneal resident”
as §7, §4, §5, §6

Point of comparison: “4-phenyl-3-(1,2-dicarba-closo-dodecaboranyl)furan-2(5 H)-one [Compound 4a]”, IC50 24.3 ± 2.01 µM. Against it:
- 4-[4-(methylsulfonyl)phenyl]-3-(1,2-dicarba-closo-dodecaboranyl)furan-2(5H)-one [Compound 4b] — within error, 27.3 ± 2.82 µM
- R,S-7-(2-oxo-4-(4-sulfamoylphenyl)-2,5-dihydrofuran-3-yl)-7,8-dicarba-nido-dodeca-hydroundecaborate(–1) sodium [Compound 6] — higher, > 50 µM

biological target: T1, human recombinant COX-2 (Homo sapiens, UniProt P35354); assay: COX Fluorescent Inhibitor Screening Assay, COX-2; assay type: biochemical; settings: human recombinant COX-2, Cayman kit 700100
T1 construct: purchased Cayman Chemical Item No. 700100 (assay kit)
T1 sequence (P35354 18-604): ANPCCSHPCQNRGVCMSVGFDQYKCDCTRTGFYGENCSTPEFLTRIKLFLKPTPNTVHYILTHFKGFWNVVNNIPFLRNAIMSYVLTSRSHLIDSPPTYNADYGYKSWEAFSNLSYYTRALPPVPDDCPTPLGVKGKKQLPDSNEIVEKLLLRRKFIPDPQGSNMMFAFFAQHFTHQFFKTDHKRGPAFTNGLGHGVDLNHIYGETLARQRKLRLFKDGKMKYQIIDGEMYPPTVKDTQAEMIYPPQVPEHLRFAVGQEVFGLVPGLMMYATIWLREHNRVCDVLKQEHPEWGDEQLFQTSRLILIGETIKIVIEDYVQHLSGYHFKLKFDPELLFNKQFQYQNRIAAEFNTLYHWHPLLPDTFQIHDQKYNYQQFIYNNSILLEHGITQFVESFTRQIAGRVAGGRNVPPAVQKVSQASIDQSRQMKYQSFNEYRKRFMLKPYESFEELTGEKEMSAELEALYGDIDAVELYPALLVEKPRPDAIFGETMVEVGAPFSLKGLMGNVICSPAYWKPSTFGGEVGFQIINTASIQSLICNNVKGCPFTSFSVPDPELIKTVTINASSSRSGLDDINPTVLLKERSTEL
Protocol: The synthesized compounds were tested in vitro for their potential to inhibit ovine COX-1 and human recombinant COX-2.
*All compounds were measured with the Cytation 5 plate reader and the "COX Fluorescent Inhibitor […]
chemi cals, USA) " according to the manufacturer's
Error bars indicate standard error mean (SEM) obtained from two measurements at each concentration.
(1 picture or pasted object on this page, not shown here)

Point of comparison: “R,S-7-(2-oxo-4-(4-sulfamoylphenyl)-2,5-dihydrofuran-3-yl)-7,8-dicarba-nido-dodeca-hydroundecaborate(–1) sodium [Compound 6]”, IC50 69.6 µM. Against it:
- 4-[4-(methylsulfonyl)phenyl]-3-(1,2-dicarba-closo-dodecaboranyl)furan-2(5H)-one [Compound 4b] — higher, > 100 µM
- 4-phenyl-3-(1,2-dicarba-closo-dodecaboranyl)furan-2(5 H)-one [Compound 4a] — higher, > 100 µM

system: B16, mouse solid melanoma; assay: CV (crystal violet) cell viability, B16; assay type: cell-based; settings: 48 h
Protocol: as §1, §2, §3, §4, §5, §6

Point of comparison: “4-[4-(methylsulfonyl)phenyl]-3-(1,2-dicarba-closo-dodecaboranyl)furan-2(5H)-one [Compound 4b]”, IC50 22.2 ± 0.65 µM. Against it:
- 4-phenyl-3-(1,2-dicarba-closo-dodecaboranyl)furan-2(5 H)-one [Compound 4a] — within 1.5-fold, 30.6 ± 3.86 µM
- R,S-7-(2-oxo-4-(4-sulfamoylphenyl)-2,5-dihydrofuran-3-yl)-7,8-dicarba-nido-dodeca-hydroundecaborate(–1) sodium [Compound 6] — higher, > 50 µM

same assay, conditions: IC50 macrophages / IC50 cancer

Point of comparison: “4-phenyl-3-(1,2-dicarba-closo-dodecaboranyl)furan-2(5 H)-one [Compound 4a]”, “Selectivity index B16” value 1.6. Against it:
- 4-[4-(methylsulfonyl)phenyl]-3-(1,2-dicarba-closo-dodecaboranyl)furan-2(5H)-one [Compound 4b] — higher, 3.0

system: SW620, human colon carcinoma; assay: MTT cell viability, SW620; assay type: cell-based; settings: 48 h
Protocol: as §1
(§8) Reagents were obtained from Sigma (St. Louis, MO) unless indicated otherwise. […]
S ystems, Minneapolis, MN USA). […] After being detached b y tr ypsinization, cells were seeded in defined number as follows: 2.5 × 10^3 cells/well in 96-well plates for viability assessment and 2 × 10^4 cells/well in 24-well plates for flow cytometry. […]
Before treatment, non- adherent cells were removed. Compounds 4a- c, 5 and 6 were dissolved in DMSO and stored at −20 °C for a m onth. Working solutions were freshl y prepared in 10% FCS-RPMI-1640. Controls were treated with culture medium containing the equivalent […]
as §4, §5, §6

Point of comparison: “4-[4-(methylsulfonyl)phenyl]-3-(1,2-dicarba-closo-dodecaboranyl)furan-2(5H)-one [Compound 4b]”, IC50 19.2 ± 0.78 µM. Against it:
- 4-phenyl-3-(1,2-dicarba-closo-dodecaboranyl)furan-2(5 H)-one [Compound 4a] — within 1.5-fold, 24.7 ± 0.42 µM
- R,S-7-(2-oxo-4-(4-sulfamoylphenyl)-2,5-dihydrofuran-3-yl)-7,8-dicarba-nido-dodeca-hydroundecaborate(–1) sodium [Compound 6] — higher, > 50 µM

system: SW620, human colon carcinoma; assay: CV (crystal violet) cell viability, SW620; assay type: cell-based; settings: 48 h
Protocol: as §1, §8
S ystems, Minneapolis, MN USA). […] After being detached b y tr ypsinization, cells were seeded in defined number as follows: 2.5 × 10^3 cells/well in 96-well plates for viability assessment and 2 × 10^4 cells/well in 24-well plates for flow cytometry. Peritoneal resident […]
as §3, §4, §5, §6

Point of comparison: “4-phenyl-3-(1,2-dicarba-closo-dodecaboranyl)furan-2(5 H)-one [Compound 4a]”, IC50 24.8 ± 0.35 µM. Against it:
- 4-[4-(methylsulfonyl)phenyl]-3-(1,2-dicarba-closo-dodecaboranyl)furan-2(5H)-one [Compound 4b] — within 1.5-fold, 21.8 ± 0.64 µM
- R,S-7-(2-oxo-4-(4-sulfamoylphenyl)-2,5-dihydrofuran-3-yl)-7,8-dicarba-nido-dodeca-hydroundecaborate(–1) sodium [Compound 6] — higher, > 50 µM

same assay, conditions: IC50 macrophages / IC50 cancer

Point of comparison: “4-[4-(methylsulfonyl)phenyl]-3-(1,2-dicarba-closo-dodecaboranyl)furan-2(5H)-one [Compound 4b]”, “Selectivity index SW620” value 3.0. Against it:
- 4-phenyl-3-(1,2-dicarba-closo-dodecaboranyl)furan-2(5 H)-one [Compound 4a] — lower, 2.0

system: CT26CL25, mouse colon carcinoma; assay: MTT cell viability, CT26CL25; assay type: cell-based; settings: 48 h
Protocol: as §1
as §2, with “cytometry.” for “cytometry. Peritoneal resident”
as §7, §4, §5, §6

Point of comparison: “4-phenyl-3-(1,2-dicarba-closo-dodecaboranyl)furan-2(5 H)-one [Compound 4a]”, IC50 42.6 ± 3.17 µM. Against it:
- 4-[4-(methylsulfonyl)phenyl]-3-(1,2-dicarba-closo-dodecaboranyl)furan-2(5H)-one [Compound 4b] — within 1.5-fold, 38.1 ± 0.9 µM
- R,S-7-(2-oxo-4-(4-sulfamoylphenyl)-2,5-dihydrofuran-3-yl)-7,8-dicarba-nido-dodeca-hydroundecaborate(–1) sodium [Compound 6] — higher, > 50 µM
